“And” between values parts separate entries of the source, which are not always exact repeats. Identical values can stand only once.
Legend:
Soybean 15-LOX enzyme = target: T1, Soybean 15-LOX enzyme (Glycine max, UniProt P08170); assay: In vitro 15-lipoxygenase inhibition (Cayman Lipoxygenase Inhibitor Screening Assay Kit); format: biochemical; settings: for IC50: Soybean 15-LOX, arachidonic acid substrate, mean ± SEM of three experiments
T1 construct: purchased Cayman Chemical 760700
T1 sequence (P08170 1-839): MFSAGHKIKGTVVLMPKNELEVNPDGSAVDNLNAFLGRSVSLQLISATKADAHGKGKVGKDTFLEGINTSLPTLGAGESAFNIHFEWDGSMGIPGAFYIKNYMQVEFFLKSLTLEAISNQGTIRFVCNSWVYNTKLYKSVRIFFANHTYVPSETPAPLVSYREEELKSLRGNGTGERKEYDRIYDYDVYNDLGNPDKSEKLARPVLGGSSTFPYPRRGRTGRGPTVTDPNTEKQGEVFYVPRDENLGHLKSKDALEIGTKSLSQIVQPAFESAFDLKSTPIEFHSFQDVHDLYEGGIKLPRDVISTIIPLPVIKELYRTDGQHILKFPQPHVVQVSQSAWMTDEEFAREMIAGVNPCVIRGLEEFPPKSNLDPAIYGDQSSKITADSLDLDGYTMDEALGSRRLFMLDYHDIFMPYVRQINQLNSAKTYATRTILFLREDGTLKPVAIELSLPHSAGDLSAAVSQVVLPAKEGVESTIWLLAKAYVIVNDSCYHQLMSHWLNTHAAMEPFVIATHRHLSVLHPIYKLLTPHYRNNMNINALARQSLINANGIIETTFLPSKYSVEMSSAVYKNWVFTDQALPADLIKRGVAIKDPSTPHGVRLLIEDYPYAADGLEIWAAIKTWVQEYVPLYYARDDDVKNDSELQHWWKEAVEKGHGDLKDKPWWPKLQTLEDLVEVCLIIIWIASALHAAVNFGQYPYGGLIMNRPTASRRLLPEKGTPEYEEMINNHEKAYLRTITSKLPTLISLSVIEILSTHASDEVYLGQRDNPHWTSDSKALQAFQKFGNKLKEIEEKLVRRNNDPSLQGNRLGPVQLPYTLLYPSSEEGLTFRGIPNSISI
Description: 90 µL of 15-LOX was pipetted into a 96-well plate quickly. The test chemical was then dissolved in DMSO in 10 µL portions at concentrations of 2.5 µM, 5.0 µM, and 10 µM and added to each well. Arachidonic acid, a 110 µL substrate, was added to start the reaction, and the plate was shaken for at least five minutes. In order to interrupt enzyme catalysis and advance the reaction, 100 µL of chromogen was added to each well and made in accordance with the manufacturer’s instructions. In blank wells, 100 µL of assay buffer (0.1 M Tris-HCl, pH 7.4) was utilized. […] The solution’s absorbance was determined at λ 490–500 nm. The percentage inhibition was calculated according to the following equation:% inhibition = [(IA − Ainhibitor sample)/IA] × 100(1) where (IA) is the 100% initial activity and (Ainhibitor sample) is the absorbance of the test sample. A dose-response curve was plotted between % inhibition and the drug concentration. The non-linear dose-response curve was used for calculating drug concentration showing 50% enzyme inhibition.

[1] = DPPH radical scavenging assay; format: biochemical; settings: mean ± SEM of three experiments
Description: The antioxidant potential of all target compounds (3–9) was determined using DPPH radical scavenging assay in comparison with ascorbic acid (AA) as the control treatment.
The mechanism of antioxidants as DPPH radical scavengers is based on their hydrogen-donation ability as hydrogen atoms or an electron transfer from the compound to the DPPH to form DPPH-H. The results of DPPH reduction are presented in Table 2, Figure 7.
The DPPH scavenging activity of all novel synthesized compounds (3–9) was measured as previously described (see Supplementary Materials).
1-Biological Evaluation Details: a-In-vitro Assays for biological antioxidant Activity
- DPPH scavenging method.
A 96-well plate was filled with 100 µL of the investigated compounds at various concentrations (12.5, 25, 50, 100, and 200 µg/mL ). The plate was then incubated at room temperature for 30 min while being protected from light by adding 100 µL of 100µM DPPH methanolic solution to each well. At a λ517 nm. the solution's absorbance was measured.
The positive control was ascorbic acid, and the negative control was DMSO. According to the following equation, the percentage of DPPH scavenging activity was determined:
% of DPPH scavenging = [(A control -A sample) / A control] x100. where A control is the absorbance of the control reaction (with all reagents except the test compound), and A sample is the absorbance of the test sample. Linear regression analysis was performed to calculate drug concentration showing 50% free radical inhibition activity (IC50). All tests were performed in triplicates. […]

[2] = Lipid peroxidation assay (FeCl2/H2O2-stimulated linoleic acid peroxidation); format: biochemical; settings: mean ± SEM of three experiments
[3] = Hydrogen peroxide scavenging assay; format: biochemical; settings: mean ± SEM of three experiments
Description: H2O2 assay is used to estimate the scavenging power of the target compounds (4–9) to H2O2.
The hydrogen peroxide (H2O2) scavenging activity of all novel synthesized compounds 3–9 was measured as previously reported (see Supplementary Materials).
1-Biological Evaluation Details: a-In-vitro Assays for biological antioxidant Activity […]
Linear regression analysis was performed to calculate drug concentration showing 50% free radical inhibition activity (IC50). All tests were performed in triplicates.
-Scavenging of hydrogen peroxide
In this method, the decay or loss of hydrogen peroxide can be quantified spectrophotometrically at 230 nm when a scavenger is incubated with it. The procedure was applied with a few changes. In phosphate buffered saline, hydrogen […]
peroxide (20 mM) solution was prepared in phosphate buffered saline (PBS, pH 7.4). In order to make different concentrations of 1 ml of the tested substances (3–9) or standards in methanol, 2 ml of hydrogen peroxide solution in PBS was added. After 10 minutes, the absorbance of H2O2 was measured at 230 nm in comparison to an ascorbic acid (AA) reference solution that contained phosphate buffer but no H2O2.
% of H2O2 scavenging = [(A control -A sample) / A control] x100. […]

| SMILES | IC50 (Soybean 15-LOX enzyme) [µM] | DPPH IC50 [1] | melting point [°C] | Lipid Peroxidation IC50 [2] [µg/mL] | H2O2 IC50 [3] [µg/mL] | 15-LOX inhibitory activity relative to quercetin (Soybean 15-LOX enzyme; fold that of quercetin) [fold] |
| --- | --- | --- | --- | --- | --- | --- |
| COc1ccc(NC(=S)NN=C(C)c2cccc(NS(=O)(=O)c3c[nH]c(=S)[nH]c3=O)c2)cc1 [Compound 5c, N-{3-[(1E)-N-(4-methoxycarbamothionyl)ethanhydrazonoyl]phenyl}-4-oxo-2-thioxo-1,2,3,4-tetrahydropyrimidine-5-sulfonamides] | 5.5 ± 0.02 | 9.0 ± 1.10 µg/mL | 307 to 309 | 82.0 ± 1.40 | 45.05 ± 1.34 |  |
| Cc1cccc(-c2cc(-c3cccc(NS(=O)(=O)c4c[nH]c(=S)[nH]c4=O)c3)[nH]c(=O)c2C#N)c1 [Compound 6d, N-{3-[5-cyano-4-(3-methylphenyl)-6-oxo-1,6-dihydropyridin-2-yl]phenyl}-4-oxo-2-thioxo-1,2,3,4-tetrahydropyrimidine-5-sulfonamide] | 7.5 ± 0.04 | 21.0 ± 0.5 µg/mL | 282 to 284 | 38.0 ± 1.42 | 28.8 ± 1.05 |  |
| O=c1[nH]c(=S)[nH]cc1S(=O)(=O)Nc1cccc(-c2csc(NN=Cc3cccc(Cl)c3)n2)c1 [Compound 9b, N-(3-{2-[(2E)-2(3-chlorobenzylidene)hydrazine]-1,3-thiazol-4-yl}phenyl)-4-oxo-thioxo-1,2,3,4-tetrahydropyrimidine-5-sulfonamides] | 1.8 ± 0.06 | 11.9 ± 1.40 µg/mL | 320 to 322 | 21.0 ± 1.45 | 18.0 ± 0.72 | 2.0 |
| N#Cc1c(-c2cccc(F)c2)cc(-c2cccc(NS(=O)(=O)c3c[nH]c(=S)[nH]c3=O)c2)nc1N [Compound 7c, N-{3-[6-amino-5-cyano-4-(3-fluorophenyl)pyridine-2-yl]phenyl}-4-oxo-2-thioxo-1,2,3,4-tetrahydropyrimidine-5-sulfonamides] | 6.91 ± 0.02 | 17.7 ± 1.4 µg/mL | 268 to 270 | 36.9 ± 1.72 | 24.0 ± 1.40 |  |
| N#Cc1c(-c2cccc([N+](=O)[O-])c2)cc(-c2cccc(NS(=O)(=O)c3c[nH]c(=S)[nH]c3=O)c2)nc1N [Compound 7a, N-{3-[6-amino-5-cyano-4-(3-nitrophenyl)pyridine-2-yl]phenyl}-4-oxo-2-thioxo-1,2,3,4-tetrahydropyrimidine-5-sulfonamides] | 6.95 ± 0.07 | 25.5 ± 1.16 µg/mL | 251 to 253 | 37.6 ± 1.2 | 26.0 ± 1.28 |  |
| Cc1cccc(C=NNc2nc(-c3cccc(NS(=O)(=O)c4c[nH]c(=S)[nH]c4=O)c3)cs2)c1 [Compound 9d, N-(3-{2-[(2E)-2(3-methylbenzylidene)hydrazine]-1,3-thiazol-4-yl}phenyl)-4-oxo-thioxo-1,2,3,4-tetrahydropyrimidine-5-sulfonamides] | 2.5 ± 0.03 | 7.55 ± 1.70 µg/mL | 326 to 328 | 20.0 ± 1.56 | 15.0 ± 0.89 |  |
| CC(=NNC(=S)Nc1ccc(F)cc1)c1cccc(NS(=O)(=O)c2c[nH]c(=S)[nH]c2=O)c1 [Compound 5d, N-{3-[(1E)-N-(4-fluorocarbamothionyl)ethanhydrazonoyl]phenyl}-4-oxo-2-thioxo-1,2,3,4-tetrahydropyrimidine-5-sulfonamides] | 5.9 ± 0.06 | 14.72 ± 1.11 µg/mL | 313 to 315 | 95.0 ± 1.42 | 47.0 ± 1.38 |  |
| N#Cc1c(-c2cccc(Cl)c2)cc(-c2cccc(NS(=O)(=O)c3c[nH]c(=S)[nH]c3=O)c2)[nH]c1=O [Compound 6b, N-{3-[5-cyano-4-(3-chlorophenyl)-6-oxo-1,6-dihydropyridin-2-yl]phenyl}-4-oxo-2-thioxo-1,2,3,4-tetrahydropyrimidine-5-sulfonamide] | 7.6 ± 0.05 | 22.0 ± 1.18 µg/mL | 272 to 274 | 40.0 ± 1.63 | 30.0 ± 1.21 |  |
| CNC(=S)NN=C(C)c1cccc(NS(=O)(=O)c2c[nH]c(=S)[nH]c2=O)c1 [Compound 5a, N-{3-[(1E)-N-(methylcarbamothionyl)ethanhydrazonoyl]phenyl}-4-oxo-2-thioxo-1,2,3,4-tetrahydropyrimidine-5-sulfonamide] | 5.79 ± 0.01 | 14.50 ± 0.72 µg/mL | 305 to 307 | 90.0 ± 1.45 | 41.0 ± 1.53 |  |
| CCNC(=S)NN=C(C)c1cccc(NS(=O)(=O)c2c[nH]c(=S)[nH]c2=O)c1 [Compound 5b, N-{3-[(1E)-N-(ethylcarbamothionyl)ethanhydrazonoyl]phenyl}-4-oxo-2-thioxo-1,2,3,4-tetrahydropyrimidine-5-sulfonamide] | 5.7 ± 0.03 | 14.70 ± 0.22 µg/mL and 14.00 ± 0.22 µg/mL | 310 to 312 | 85.0 ± 1.03 | 40.0 ± 1.32 |  |

From publication PMC9963659, “Novel 2-Thiouracil-5-Sulfonamide Derivatives: Design, Synthesis, Molecular Docking, and Biological Evaluation as Antioxidants with 15-LOX Inhibition” (Molecules, 2023)
